Active and inactive are the calls of the source. The calls are words filed in the database; no cut-off is given here.
Columns and labels:
LLC-PK1 [1] = assay: Cytoprotective activity against 25 mg/ml iodixanol-induced cell damage in pig LLC-PK1 cells assessed as restoration of cell viability at 5 uM preincubated for 2 hrs followed by iodixanol addition measured after 3 hrs by MTT assay relative to control; assay type: functional, Sus scrofa
LLC-PK1 [2] = assay: Cytoprotective activity against 25 mg/ml iodixanol-induced apoptosis in pig LLC-PK1 cells assessed as reduction in dead cells preincubated for 2 hrs followed by iodixanol addition measured after 3 hrs by annexin V Alexa Fluor 488/propidium iodide staining based cytometry; assay type: functional, cell-based; details: Sus scrofa
LLC-PK1 [3] = assay: Inhibition of p38 phosphorylation in pig LLC-PK1 cells at 2.5 to 5 uM preincubated for 2 hrs followed by iodixanol addition measured after 3 hrs by western blot analysis; assay type: cell-based; details: Sus scrofa
LLC-PK1 [4] = assay: Cytoprotective activity against 25 mg/ml iodixanol-induced cell damage in pig LLC-PK1 cells assessed as restoration of cell viability preincubated for 2 hrs followed by iodixanol addition measured after 3 hrs by MTT assay; assay type: functional, cell-based; details: Sus scrofa
LLC-PK1 [5] = assay: Inhibition of ERK phosphorylation in pig LLC-PK1 cells at 2.5 to 5 uM preincubated for 2 hrs followed by iodixanol addition measured after 3 hrs by western blot analysis; assay type: cell-based; details: Sus scrofa
LLC-PK1 [6] = assay: Cytoprotective activity against 25 mg/ml iodixanol-induced cell damage in pig LLC-PK1 cells assessed as inhibition of caspase-3 enzyme activity using DEVD-pNA substrate at 2.5 to 5 uM preincubated for 2 hrs followed by iodixanol addition and subsequent incubation for 3 hrs followed by substrate addition measured after 1 hr by microplate reader analysis; assay type: functional, cell-based; details: Sus scrofa
LLC-PK1 [7] = assay: Cytoprotective activity against 25 mg/ml iodixanol-induced cell damage in pig LLC-PK1 cells assessed as inhibition of cleaved caspase-3 expression at 2.5 to 5 uM preincubated for 2 hrs followed by iodixanol addition measured after 3 hrs by western blot analysis; assay type: functional, cell-based; details: Sus scrofa
LLC-PK1 [8] = assay: Inhibition of JNK phosphorylation in pig LLC-PK1 cells at 2.5 to 5 uM preincubated for 2 hrs followed by iodixanol addition measured after 3 hrs by western blot analysis; assay type: cell-based; details: Sus scrofa
LLC-PK1 [9] = assay: Cytotoxicity against pig LLC-PK1 cells assessed as reduction in cell viability at 1 to 10 uM incubated for 2 hrs by MTT assay; assay type: cell-based, Sus scrofa; details: llc-pk1, 2 h

## COc1c(O)cc2oc3cc(O)c(CC=C(C)C)c(O)c3c(=O)c2c1CC=C(C)C [MANGOSTIN]
LLC-PK1 [1]
  Activity: <=90.42%
LLC-PK1 [2]
  Activity: Dose-dependent effect
LLC-PK1 [3]
  inhibition: Active
LLC-PK1 [4]
  Activity: Dose-dependent effect
LLC-PK1 [5]
  inhibition: Active
LLC-PK1 [6]
  inhibition: Active
LLC-PK1 [7]
  inhibition: Active
LLC-PK1 [8]
  inhibition: Active
LLC-PK1 [9]
  Activity: Non-toxic
